Publication PMC8556396, “Statin-mediated disruption of Rho GTPase prenylation and activity inhibits respiratory syncytial virus infection” (Communications Biology, 2021)
Where “and” joins values, the source holds several entries; their conditions need not be identical. Equal entries are not always repeated.

How the values were obtained:
RSV A2 [1] = assay: Immunofluorescence staining and microscopy of RSV F and N; conditions: GGPP 10.0 µM in the presence of atorvastatin 3.5 µM
Description: HEp-2 cells were seeded to No. 1 glass coverslips (1014355117NR1, Thermo Fisher Scientific) for high-resolution confocal microscopy, or black, flat, microclear-bottom 96-well plates (655096, Greiner Bio-One) for high-throughput quantification of RSV F and N immunofluorescence. Cells were infected with RSV A2 (MOI 0.5). At 48 h p.i., cells were fixed in 4% paraformaldehyde for 30 min and permeabilized with 0.3% Triton X-100 for 10 min at room temperature. F and N proteins were probed using mouse anti-RSV F (RSV3216) and mouse anti-RSV N (RSV3132) mAbs (Bio-Rad Antibodies) diluted 1:500 in PBS + 0.1% Tween-20 (PBST), or mouse anti-RSV F mAb Alexa Fluor 488 conjugate (Millipore Sigma, 133/1H) diluted 1:200 in PBST over a 1-h incubation at room temperature. This was followed by detection with secondary anti-mouse Fab fragments conjugated to Alexa Fluor 488 (4408) or 647 (4410) (Cell Signaling Technology) diluted 1:1000 in PBST over a 1-h incubation at room temperature. Fluorescent images were acquired using either the Cellomics ArrayScan VTI HCS Reader at ×10 magnification (for quantification) or Olympus IX81 Spinning Disk Confocal microscope at ×60 magnification with oil immersion (for high-resolution images). F and N immunofluorescence was quantified in CellProfiler and normalized to total nuclear count.

RSV-GFP [2] = assay: RSV-GFP infection of HEp-2 cells, automated imaging, dose-response; type: cell-based, Respiratory syncytial virus; conditions: human respiratory syncytial virus; for EC50: HEp-2, 2 h; for inhibition at 0.75 µM: read-out: RSV-GFP inhibition (%), log Conc (uM) -0.12494; for inhibition at 0.5 µM: read-out: RSV-GFP inhibition (%), log Conc (uM) -0.30103
Description: HEp-2 cells were seeded to black, flat, microclear-bottom 96-well plates (655096, Greiner Bio-One) at a density of 5000 cells per well and incubated at 37 °C/5% CO2 overnight. The following morning, cells were washed twice with serum-free EMEM and treated with RSV-GFP (MOI 0.5) in a minimal volume of serum-free media for 90 min under frequent agitation. Unbound virus was then removed and replaced with fresh serum-containing EMEM. All drug additions were performed 2 h post-viral exposure, unless otherwise stated. Nuclei were stained with Hoechst 33342 (H3570, Thermo Fisher Scientific) (at a final concentration of 1 µg/mL) 48 h p.i. and imaging was performed using the Cellomics ArrayScan VTI HCS Reader at ×10 magnification (SPARC BioCentre, The Hospital for Sick Children, Toronto, ON).
Automated quantification of infection rates from fluorescent images were performed in CellProfiler (v2.2.0)[86]. Major steps in the image analysis pipeline included: (1) background subtraction and smoothing, (2) segmentation of nuclei, (3) segmentation of GFP-fluorescent area, (4) object masking, and (5) measurement of nuclear number, size, and intensity. Infection rate was quantified from the ratio of nuclei within GFP-fluorescent area to the total number of nuclei (Fig. 1b). This method of analysis accounts for in vitro syncytium formation induced by RSV, whereby a single infected cell may arise from the fusion of multiple cells. Mean nuclear fluorescent intensity and size was quantified as a measure of cell viability. […]

RSV-GFP [3] = assay: microbe, parasite or virus in culture; type: cell-based, Respiratory syncytial virus; conditions: human respiratory syncytial virus, HEp-2, read-out: RSV-GFP inhibition (%)
Description: The following morning, cells were washed twice with serum-free EMEM and treated with RSV-GFP (MOI 0.5) in a minimal volume of serum-free media for 90 min under frequent agitation. Unbound virus was then removed and replaced with fresh serum-containing EMEM. All drug additions were performed 2 h post-viral exposure, unless otherwise stated.
Automated quantification of infection rates from fluorescent images were performed in CellProfiler (v2.2.0)[86]. Major steps in the image analysis pipeline included: (1) background subtraction and smoothing, (2) segmentation of nuclei, (3) segmentation of GFP-fluorescent area, (4) object masking, and (5) measurement of nuclear number, size, and intensity. Infection rate was quantified from the ratio of nuclei within GFP-fluorescent area to the total number of nuclei (Fig. 1b). This method of analysis accounts for in vitro syncytium formation induced by RSV, whereby a single infected cell may arise from the fusion of multiple cells. Mean nuclear fluorescent intensity and size was quantified as a measure of cell viability.
The MicroSource […] Collection (Discovery Systems Inc.) consisting of 2400 compounds was screened using the previously outlined RSV-GFP infection assay protocol. Robot-assisted addition of drugs was performed within 1 h of RSV-GFP infection and infection rates were assayed 48 h p.i. Drugs were provided as 10 mM stocks in DMSO and serial diluted to a final concentration of 10 µM, resulting in a final DMSO concentration of 0.1% v/v. […] Hits were selected based on the criteria that: (a) the tested drug caused a >50% reduction in infection rate and (b) was not overtly cytotoxic (<10% change in mean nuclear intensity relative to DMSO control). Z-factors were calculated on a per-plate basis to monitor assay quality.

RSV A2 [4] = assay: Quantification of infectious virus production (plaque assay); type: cell-based, Respiratory syncytial virus; conditions: Fig 7A; Rhosin 50 uM, EHT 1864 20 uM, ML 141 10 uM; replicate values
Description: HEp-2 cells were seeded to six-well plates at a density of 1 × 10^6 cells per well and incubated overnight at 37 °C/5% CO2. The following morning, cells were infected with RSV A2 (MOI 1.0) and treated with drugs 2 h post-viral exposure. The supernatant, containing progeny virions, was collected 48 h p.i., snap frozen, and stored at −80 °C. Quantification of infectious virus particles was performed by a traditional plaque assay. HEp-2 cells were seeded to six-well plates at a density of 1.5 × 10^6 cells per well and grown to 90% confluency. Cells were incubated with serial dilutions of the collected supernatants for 90 min at 37 °C/5% CO2 under frequent agitation. The inoculant was then removed and replaced with 4 mL of 1:1 4% FBS DMEM-F12/1% agarose. Plates were incubated for 5 days at 37 °C/5% CO2. Cells were then fixed with 10% formalin for 30 min at room temperature. After fixation and removal of agarose from each well, the cells were stained with 0.05% neutral red and plaques were quantified under a dissecting microscope.

[5] = HEp-2, RSV-GFP MOI 0.5, treated 2 h post-viral exposure

Q: What does the source list for CC(C)=CCC/C(C)=C/CC/C(C)=C/CC/C(C)=C/COP(=O)(O)OP(=O)(O)O.N.N.N [GGPP, geranylgeranyl pyrophosphate ammonium salt]?
A: restoration of F protein intensity (RSV A2 [1]): 33.4 ± 3.5%; restoration of N protein intensity (RSV A2 [1]): 50.4 ± 1.6%

Q: For O=C(Nc1ccc([N+](=O)[O-])cc1Cl)c1cc(Cl)ccc1O [Niclosamide], which EC50 (RSV-GFP [2]; [5]) is on record?
A: Its EC50 is 443 nM.

Q: What about the inhibition at 0.75 µM (RSV-GFP [2]; HEp-2, 48 h, replicate values) of the same molecule?
A: The inhibition at 0.75 µM was 73.9%.

Q: What about the inhibition at 0.55 µM (RSV-GFP [2]; HEp-2, 48 h, read-out: RSV-GFP inhibition (%), log Conc (uM) -0.25964, replicate values) of the same molecule?
A: Its inhibition at 0.55 µM is 59.2%.

Q: What about the inhibition at 0.5 µM (RSV-GFP [2]; HEp-2, 48 h, replicate values) of the same molecule?
A: Its inhibition at 0.5 µM is 63.8%.

Q: What about the inhibition at 0.45 µM (RSV-GFP [2]; HEp-2, 48 h, read-out: RSV-GFP inhibition (%), log Conc (uM) -0.34679, replicate values) of the same molecule?
A: The inhibition at 0.45 µM was 30.5%.

Q: And the inhibition at 0.4 µM (RSV-GFP [2]; HEp-2, 48 h, read-out: RSV-GFP inhibition (%), log Conc (uM) -0.39794, replicate values)?
A: Its inhibition at 0.4 µM is 21.3%.

Q: What about the inhibition at 0.35 µM (RSV-GFP [2]; HEp-2, 48 h, read-out: RSV-GFP inhibition (%), log Conc (uM) -0.45593, replicate values) of the same molecule?
A: The inhibition at 0.35 µM was 18.9%.

Q: And the inhibition at 0.3 µM (RSV-GFP [2]; HEp-2, 48 h, read-out: RSV-GFP inhibition (%), log Conc (uM) -0.52288, replicate values)?
A: The inhibition at 0.3 µM was 4.57%.

Q: And the inhibition at 0.2 µM (RSV-GFP [2]; HEp-2, 48 h, read-out: RSV-GFP inhibition (%), log Conc (uM) -0.69897, replicate values)?
A: The inhibition at 0.2 µM was 1.85%.

Q: And the inhibition at 10 µM (RSV-GFP [3])?
A: The inhibition at 10 µM was 93.9%.

Q: Which results are given for C#C[C@]1(O)CC[C@H]2[C@@H]3CCC4=CC(=O)CC[C@@H]4[C@H]3CC[C@@]21C [Norethindrone, 19-Norethindrone]?
A: EC50 (RSV-GFP [2]; [5]): 705 nM; inhibition at 0.8 µM (RSV-GFP [2]; HEp-2, 48 h, read-out: RSV-GFP inhibition (%), log Conc (uM) -0.09691, replicate values): 61.9%; inhibition at 0.6 µM (RSV-GFP [2]; HEp-2, 48 h, read-out: RSV-GFP inhibition (%), log Conc (uM) -0.22185, replicate values): 41.8%; inhibition at 0.5 µM (RSV-GFP [2]; HEp-2, 48 h, replicate values): 19.2%; inhibition at 10 µM (RSV-GFP [3]): 75.2%

Q: N[C@H](Cc1c[nH]c2ccccc12)C(=O)N/N=C/c1ccc2nccnc2c1 [Rhosin] was tested. Which “Virus titre (log10 PFU/mL)” value (RSV A2 [4]) did it give?
A: Its value is 5.176 log10 PFU/mL and 5.204 log10 PFU/mL and 5.079 log10 PFU/mL and 5.322 log10 PFU/mL.

Q: What does the source list for CC(C)[C@@H]1NC(=O)[C@H](C)OC(=O)[C@@H](C(C)C)NC(=O)[C@@H](C(C)C)OC(=O)[C@H](C(C)C)NC(=O)[C@H](C)OC(=O)[C@@H](C(C)C)NC(=O)[C@@H](C(C)C)OC(=O)[C@H](C(C)C)NC(=O)[C@H](C)OC(=O)[C@@H](C(C)C)NC(=O)[C@@H](C(C)C)OC1=O [Valinomycin]?
A: EC50 (RSV-GFP [2]): 39 nM; inhibition at 0.75 µM (RSV-GFP [2]; HEp-2, 48 h, replicate values): 74.6%; inhibition at 0.5 µM (RSV-GFP [2]; HEp-2, 48 h, replicate values): 71.6%; inhibition at 0.25 µM (RSV-GFP [2]; HEp-2, 48 h, read-out: RSV-GFP inhibition (%), log Conc (uM) -0.60206, replicate values): 78.6%; inhibition at 0.1 µM (RSV-GFP [2]; HEp-2, 48 h, read-out: RSV-GFP inhibition (%), log Conc (uM) -1, replicate values): 76.7%; inhibition at 0.09 µM (RSV-GFP [2]; HEp-2, 48 h, read-out: RSV-GFP inhibition (%), log Conc (uM) -1.04576, replicate values): 77.4%; inhibition at 0.06 µM (RSV-GFP [2]; HEp-2, 48 h, read-out: RSV-GFP inhibition (%), log Conc (uM) -1.22185, replicate values): 71.2%; inhibition at 0.05 µM (RSV-GFP [2]; HEp-2, 48 h, read-out: RSV-GFP inhibition (%), log Conc (uM) -1.30103, replicate values): 77.4%; inhibition at 10 µM (RSV-GFP [3]): 88%

Q: Which “Virus titre (log10 PFU/mL)” value (RSV A2 [4]) does the source give for ML 141 here?
A: The value was 5 log10 PFU/mL and 5.079 log10 PFU/mL and 5.176 log10 PFU/mL and 5.204 log10 PFU/mL.
